Counter-ions that a name gives are not always drawn. Like-named read-outs stand apart in the source and are kept apart here.
Tests used:
[1] = target: Photinus pyralis (firefly) luciferase (Photinus pyralis, UniProt P08659); assay: biochemical; format: biochemical
human CYP2C9 [2] = target: T1, human CYP2C9 (Homo sapiens, UniProt P11712)
CYP3A4 = CYP3A4 (Homo sapiens, UniProt P08684)
human CYP1A2 = target: T2, human CYP1A2 (Homo sapiens, UniProt P05177); assay: biochemical
T2 sequence (P05177 1-516): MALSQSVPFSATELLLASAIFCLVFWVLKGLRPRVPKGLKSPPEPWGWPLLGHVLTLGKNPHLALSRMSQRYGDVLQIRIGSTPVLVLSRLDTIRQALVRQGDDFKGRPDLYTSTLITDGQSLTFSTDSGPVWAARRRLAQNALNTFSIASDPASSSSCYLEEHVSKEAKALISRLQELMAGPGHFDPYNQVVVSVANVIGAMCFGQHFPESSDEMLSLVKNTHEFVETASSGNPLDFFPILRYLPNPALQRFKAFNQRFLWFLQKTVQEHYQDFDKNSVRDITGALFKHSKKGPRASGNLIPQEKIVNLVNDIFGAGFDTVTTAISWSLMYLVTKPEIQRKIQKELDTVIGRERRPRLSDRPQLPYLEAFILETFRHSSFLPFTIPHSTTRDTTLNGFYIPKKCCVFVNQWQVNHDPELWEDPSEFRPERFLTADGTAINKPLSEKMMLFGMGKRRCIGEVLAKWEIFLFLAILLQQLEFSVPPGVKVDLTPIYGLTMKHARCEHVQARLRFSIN

human CYP2C19 [3] = target: T3, human CYP2C19 (Homo sapiens, UniProt P33261); assay: biochemical
human CYP2D6 = human CYP2D6 (Homo sapiens, UniProt P10635); assay: biochemical
human CYP2C19 [4] = target: T3, human CYP2C19
human CYP2C9 [5] = target: T1, human CYP2C9; assay: biochemical
[6] = CYP1A2 IC50 (half-maximal inhibitory concentration)
[7] = CYP2D6 IC50 (half-maximal inhibitory concentration)
[8] = CYP2C9 IC50 (half-maximal inhibitory concentration)
[9] = CYP2C19 IC50 (half-maximal inhibitory concentration)

T1 sequence (P11712 whole entry): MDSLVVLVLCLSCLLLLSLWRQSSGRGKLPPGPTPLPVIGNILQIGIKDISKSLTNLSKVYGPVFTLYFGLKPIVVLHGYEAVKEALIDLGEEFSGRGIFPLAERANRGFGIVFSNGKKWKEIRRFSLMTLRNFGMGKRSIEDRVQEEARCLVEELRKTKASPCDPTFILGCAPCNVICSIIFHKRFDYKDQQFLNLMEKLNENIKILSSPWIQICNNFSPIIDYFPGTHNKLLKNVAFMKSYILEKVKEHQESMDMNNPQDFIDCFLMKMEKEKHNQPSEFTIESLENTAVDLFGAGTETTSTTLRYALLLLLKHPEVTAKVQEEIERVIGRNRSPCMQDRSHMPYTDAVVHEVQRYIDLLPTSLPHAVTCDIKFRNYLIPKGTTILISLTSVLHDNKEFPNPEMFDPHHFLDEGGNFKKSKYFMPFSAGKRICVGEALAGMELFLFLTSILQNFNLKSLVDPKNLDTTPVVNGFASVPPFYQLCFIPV
Sequence of Photinus pyralis (firefly) luciferase (P08659 whole entry): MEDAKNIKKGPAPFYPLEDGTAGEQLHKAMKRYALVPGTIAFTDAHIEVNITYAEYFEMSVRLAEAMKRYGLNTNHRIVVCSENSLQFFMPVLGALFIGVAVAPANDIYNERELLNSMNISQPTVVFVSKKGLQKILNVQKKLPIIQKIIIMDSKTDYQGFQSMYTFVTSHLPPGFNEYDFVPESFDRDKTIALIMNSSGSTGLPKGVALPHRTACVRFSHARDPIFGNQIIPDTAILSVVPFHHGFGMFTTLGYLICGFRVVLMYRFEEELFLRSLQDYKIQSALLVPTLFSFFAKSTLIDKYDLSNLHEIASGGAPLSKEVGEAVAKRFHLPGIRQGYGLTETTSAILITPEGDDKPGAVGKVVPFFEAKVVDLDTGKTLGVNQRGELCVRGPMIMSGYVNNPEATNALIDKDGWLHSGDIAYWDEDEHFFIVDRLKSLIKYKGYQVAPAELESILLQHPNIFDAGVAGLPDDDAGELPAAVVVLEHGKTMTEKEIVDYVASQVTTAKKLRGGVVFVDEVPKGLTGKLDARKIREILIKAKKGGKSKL
Sequence of human CYP2D6 (P10635 whole entry): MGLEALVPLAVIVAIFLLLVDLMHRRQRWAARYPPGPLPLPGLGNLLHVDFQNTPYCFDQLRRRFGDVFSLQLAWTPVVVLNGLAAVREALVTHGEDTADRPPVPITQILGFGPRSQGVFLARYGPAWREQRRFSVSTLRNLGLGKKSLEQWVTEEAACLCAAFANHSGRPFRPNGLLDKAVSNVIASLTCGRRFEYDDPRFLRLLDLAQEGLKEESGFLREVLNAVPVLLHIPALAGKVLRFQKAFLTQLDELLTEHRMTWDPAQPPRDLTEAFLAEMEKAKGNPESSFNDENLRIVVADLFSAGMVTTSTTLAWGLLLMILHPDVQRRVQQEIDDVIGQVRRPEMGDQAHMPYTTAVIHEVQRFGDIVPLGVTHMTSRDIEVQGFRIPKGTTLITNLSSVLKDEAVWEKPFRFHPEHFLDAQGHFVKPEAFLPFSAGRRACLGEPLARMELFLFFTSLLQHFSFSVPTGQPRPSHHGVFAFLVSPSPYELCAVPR
Sequence of CYP3A4 (P08684 whole entry): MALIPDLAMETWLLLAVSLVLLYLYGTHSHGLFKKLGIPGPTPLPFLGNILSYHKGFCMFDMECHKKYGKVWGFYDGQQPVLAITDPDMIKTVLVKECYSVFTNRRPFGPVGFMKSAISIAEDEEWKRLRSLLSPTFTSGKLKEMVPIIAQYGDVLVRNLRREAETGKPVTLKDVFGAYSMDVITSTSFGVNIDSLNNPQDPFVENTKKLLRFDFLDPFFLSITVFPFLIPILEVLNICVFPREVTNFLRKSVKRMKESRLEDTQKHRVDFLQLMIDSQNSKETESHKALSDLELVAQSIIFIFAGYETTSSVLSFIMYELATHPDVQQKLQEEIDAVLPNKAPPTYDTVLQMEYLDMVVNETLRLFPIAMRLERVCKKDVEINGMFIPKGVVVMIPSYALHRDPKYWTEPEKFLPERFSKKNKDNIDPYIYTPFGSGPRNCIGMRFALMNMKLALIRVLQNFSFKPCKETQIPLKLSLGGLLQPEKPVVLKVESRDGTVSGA
T3 sequence (P33261 whole entry): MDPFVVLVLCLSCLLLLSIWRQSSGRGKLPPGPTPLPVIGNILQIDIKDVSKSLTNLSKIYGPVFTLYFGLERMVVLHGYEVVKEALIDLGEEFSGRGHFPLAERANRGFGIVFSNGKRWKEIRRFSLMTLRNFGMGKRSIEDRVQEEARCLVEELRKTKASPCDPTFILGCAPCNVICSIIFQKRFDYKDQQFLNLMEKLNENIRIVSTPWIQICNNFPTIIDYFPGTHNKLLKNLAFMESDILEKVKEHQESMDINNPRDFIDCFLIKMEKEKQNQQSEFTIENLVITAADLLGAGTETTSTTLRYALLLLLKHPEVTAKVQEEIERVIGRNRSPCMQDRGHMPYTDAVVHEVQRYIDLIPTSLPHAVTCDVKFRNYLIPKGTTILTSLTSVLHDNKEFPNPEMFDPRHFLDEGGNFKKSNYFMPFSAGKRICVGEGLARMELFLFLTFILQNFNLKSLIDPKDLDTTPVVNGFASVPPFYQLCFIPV

SMILES | Luciferase IC50 [1] | CYP2C9 IC50 (human CYP2C9 [2]) | CYP3A4 IC50 (CYP3A4) | IC50 (human CYP1A2; CYP1A2 IC50) [µM] | IC50 (human CYP2C19 [3]; CYP2C19 IC50) [µM] | IC50 (human CYP2D6; CYP2D6 IC50) [µM] | Luciferase IC50 (half-maximal inhibitory concentration) [1] | CYP3A4 IC50 (half-maximal inhibitory concentration) (CYP3A4) | IC50 (human CYP1A2; [6]) [µM] | IC50 (human CYP2D6; [7]) [µM] | other results
CCCCC(CC)CNCC(CC)CCCC (stereo not shown) [2,2'-Diethylhexylamine] | Inactive | Inactive | Inactive | 47.4 | 51.3 | 0.31 |  |  |  |  | 
CCN(CC)CCCN(c1ccccc1)C1Cc2ccccc2C1 [Aprindine hydrochloride] | Inactive | Inactive | Inactive | 22.2 | 41.3 | 0.44 |  |  |  |  | 
CN1CC2c3ccccc3Oc3ccc(Cl)cc3C2C1 (stereo not shown) [Asenapine] | Inactive | Inactive | Inactive | 7.55 |  | 0.09 |  |  |  |  | CYP2C19 IC50 (human CYP2C19 [4]): Inactive
c1ccc2cc3c(ccc4ccccc43)cc2c1 [Benz(a)anthracene] |  |  | Inactive | 0.86 | 15.9 | 50.5 |  |  |  |  | IC50 [1]: 6.12 µM; IC50 (human CYP2C9 [5]; CYP2C9 IC50): 36.4 µM
c1ccc2c(c1)-c1cccc3c1c-2cc1ccccc13 [Benzo(b)fluoranthene] |  | Inactive | Inactive | 0.69 | 10.5 | 30 |  |  |  |  | IC50 [1]: 5.37 µM
c1ccc2c(c1)c1cccc3ccc4cccc2c4c31 [Benzo(e)pyrene] | Inactive | Inactive | Inactive | 0.1 |  | 55.4 |  |  |  |  | CYP2C19 IC50 (human CYP2C19 [4]): Inactive
CN(Cc1cc(Br)cc(Br)c1N)C1CCCCC1 [Bromhexine hydrochloride] | Inactive |  | Inactive |  |  |  |  |  |  |  | IC50 (human CYP1A2): 28.1 ± 9.38 µM; IC50 (human CYP2C9 [5]): 19.5 ± 6.96 µM; IC50 (human CYP2C19 [3]): 4.36 µM; IC50 (human CYP2D6): 0.01 ± 0.01 µM
Cc1ccc(Cl)c(OCC(O)CNC(C)(C)C)c1 (stereo not shown) [Bupranolol] |  |  |  |  |  |  | Inactive | Inactive | 15.5 | 0.98 | CYP2C9 IC50 (half-maximal inhibitory concentration) (human CYP2C9 [2]): Inactive; CYP2C19 IC50 (half-maximal inhibitory concentration) (human CYP2C19 [4]): Inactive
CCCCN(CCCC)CCCOC(=O)c1ccc(N)cc1 [Butacaine] |  |  |  |  |  |  | Inactive | Inactive | 22.4 | 0.03 | IC50 (human CYP2C9 [5]; [8]): 26.4 µM; IC50 (human CYP2C19 [3]; [9]): 38.9 µM
CN(Cc1ccc(C(C)(C)C)cc1)Cc1cccc2ccccc12 [Butenafine] | Inactive |  | Inactive | 24.6 | 9.91 | 0.39 |  |  |  |  | IC50 (human CYP2C9 [5]; CYP2C9 IC50): 16.3 µM
CC(C(O)c1ccccc1)N(C)C/C=C/c1ccccc1 (stereo not shown) [Cinnamedrine] |  |  |  |  |  |  | Inactive | Inactive |  |  | IC50 (human CYP1A2): 16.4 µM; IC50 (human CYP2C9 [5]): 16.1 µM; IC50 (human CYP2C19 [3]): 1.46 µM; IC50 (human CYP2D6): 0.11 µM
CCCCc1cc2ccccc2c(OCCN(C)C)n1 [Dimethisoquin hydrochloride] |  |  |  |  |  |  | Inactive | Inactive |  |  | CYP2C9 IC50 (half-maximal inhibitory concentration) (human CYP2C9 [2]): Inactive; IC50 (human CYP1A2): 0.47 ± 0.03 µM; IC50 (human CYP2C19 [3]): 39.2 ± 6.35 µM; IC50 (human CYP2D6): 4.36 µM
CCN(CC)c1c([N+](=O)[O-])cc(C(F)(F)F)c(N)c1[N+](=O)[O-] [Dinitramine] |  |  |  |  |  |  | Inactive | Inactive | 0.3 | 55.8 | IC50 (human CYP2C9 [5]; [8]): 74.5 µM; IC50 (human CYP2C19 [3]; [9]): 19.3 µM
CCc1ccc(C2CCNCC2)cc1 [Enefexine] | Inactive | Inactive | Inactive |  |  |  |  |  |  |  | CYP2C19 IC50 (human CYP2C19 [4]): Inactive; IC50 (human CYP1A2): 23.2 µM; IC50 (human CYP2D6): 0.42 µM
c1ccc2c(c1)-c1cccc3cccc-2c13 [Fluoranthene] |  |  | Inactive | 0.73 | 50.2 | 21.5 |  |  |  |  | IC50 [1]: 62.1 µM; IC50 (human CYP2C9 [5]): 67.8 µM
COc1ccc(-c2coc3cc(O)ccc3c2=O)cc1 [Formononetin] |  |  |  |  |  |  |  | Inactive | 14.4 | 51.6 | IC50 [1]: 3.18 µM; IC50 (human CYP2C9 [5]; [8]): 0.29 µM; IC50 (human CYP2C19 [3]; [9]): 62.3 µM
CCN(CC)CCNc1ccc(CO)c2sc3ccccc3c(=O)c12 [Hycanthone] | Inactive | Inactive | Inactive | 0.58 |  | 3.77 |  |  |  |  | CYP2C19 IC50 (human CYP2C19 [4]): Inactive
CCn1ccnc1CC1COc2ccccc2O1 (stereo not shown) [Imiloxan] |  |  |  |  |  |  | Inactive | Inactive | 25.3 | 0.69 | CYP2C9 IC50 (half-maximal inhibitory concentration) (human CYP2C9 [2]): Inactive; IC50 (human CYP2C19 [3]; [9]): 4.42 µM
CN1[C@@H]2CC[C@H]1C[C@@H](OC(=O)c1cc(Cl)cc(Cl)c1)C2 [MDL 72222] |  |  |  |  |  |  | Inactive | Inactive | 14.6 | 0.05 | CYP2C9 IC50 (half-maximal inhibitory concentration) (human CYP2C9 [2]): Inactive; CYP2C19 IC50 (half-maximal inhibitory concentration) (human CYP2C19 [4]): Inactive
CC(COc1ccccc1)N(CCCl)Cc1ccccc1 (stereo not shown) [Phenoxybenzamine hydrochloride] |  |  |  |  |  |  | Inactive | Inactive | 65.8 | 0.38 | IC50 (human CYP2C9 [5]; [8]): 22.8 µM; IC50 (human CYP2C19 [3]; [9]): 2.44 µM
CC(CN1c2ccccc2Sc2ccccc21)N(C)C (stereo not shown) [Promethazine hydrochloride] |  |  |  |  |  |  | Inactive | Inactive | 2.23 | 0.89 | IC50 (human CYP2C19 [3]; [9]): 14.5 µM
COc1ccc(CN(CCN(C)C)c2ccccn2)cc1 [Pyrilamine maleate] |  |  |  |  |  |  | Inactive | Inactive | 62.7 | 0.18 | CYP2C9 IC50 (half-maximal inhibitory concentration) (human CYP2C9 [2]): Inactive; IC50 (human CYP2C19 [3]; [9]): 15.8 µM
CCN(CC)CCCC(C)Nc1c2ccc(Cl)cc2nc2ccc(OC)cc12 (stereo not shown) [Quinacrine] | Inactive | Inactive | Inactive | 2.2 |  | 0.18 |  |  |  |  | CYP2C19 IC50 (human CYP2C19 [4]): Inactive
Oc1cc(Cl)ccc1Oc1ccc(Cl)cc1Cl [Triclosan] | Inactive |  | Inactive | 20.8 | 0.71 | 32.8 |  |  |  |  | 
CS(=O)(=O)c1ccc(-c2cn3ccccc3n2)cc1 [Zolimidine] |  |  | Inactive | 0.7 | 25.7 | 24.2 |  |  |  |  | IC50 [1]: 6.95 µM; IC50 (human CYP2C9 [5]; CYP2C9 IC50): 24.1 µM

From paper PMC12155096 (International Journal of Molecular Sciences, 2025)
